Laboratory results taken from a melting point compilation (Tetko et al.; mined from patent text by program, amines drawn as free bases though some values may be those of a salt).

Structure (SMILES)	melting point [°C]
CC(=O)OC1CC2C=CC3C4CCC(C(C)CCCC(C)C)C4(C)CCC3C2(C)C(OC(C)=O)C1 (stereo unspecified)	116 to 118
COc1cc(Cl)c2[nH]c(=O)[nH]c(=O)c2c1OC	282 to 284
CC(C)(C)C(=O)c1ccc(CN2C(=O)c3ccccc3C2=O)cc1	138 to 140
CCCC(=O)Nc1ccc2nc(S(N)(=O)=O)sc2c1	246 to 247
Cc1cc(SC2=C(O)CC(CCC(C)C)(C3CCCC3)OC2=O)c(C(C)(C)C)cc1CO (stereo unspecified)	74 to 77
COc1ccc(-c2cc(Sc3ccc([N+](=O)[O-])cc3[N+](=O)[O-])sc2-c2ccc(OC)cc2)cc1	143 to 145
FC(F)(F)c1ccc2cc3[nH]c(=S)[nH]c3nc2c1	> 320
Cc1ccsc1C1CC(=O)c2c(C)ccnc2C1 (stereo unspecified)	104 to 105
COC(=O)c1cc(OC)c(Cc2c(N)nc(N)nc2O)c(OC)c1	224 to 226
CC(c1nnc2c(=O)[nH]c3cc(C(F)(F)F)c(Br)cc3n12)P(=O)(O)O (stereo unspecified)	> 300
O=C(Oc1cc(Cl)ccc1Cl)c1cc2ccccc2oc1=O	189 to 192
C=C(C)Cn1cnc2c(N)nc3ccccc3c21	290 to 294
CCCCNc1cccnc1S(=O)(=O)NC(=O)Nc1nc(OC)cc(OC)n1	118 to 119
Cn1ncc(C(=O)O)c1Cl	195 to 197
COc1cc2c(cc1OC)C(=O)C(=Cc1cc(Cl)cc(Cl)c1)CC2	200 to 201
Cc1csc2nc(S(=O)(=O)Nc3cccc4sccc34)nn12	205 to 209
CC(=O)OCc1cc2cc(OCc3ccccc3)ccc2n1Cc1ccc(C(C)(C)C)cc1	132 to 133
CCN(C)c1nsc(NC(=O)NC)c1C#N	175
CCOC(=O)c1ccc2c(Br)cccc2c1	52 to 54
CN(C)CCCn1c(=O)c2c(N)c3c(=O)c4ccccc4c(=O)c3c(N)c2c1=O	215 to 216
Cc1cc(C)c2nc(CO)[nH]c2n1	244 to 246
CCCCCCCCCCCCCCCCCCOc1ccc(N)cc1	95 to 97
COC(=O)c1ccc(C(=O)C2C(=O)N(C(N)=O)c3ccc(Cl)cc32)s1 (stereo unspecified)	219 to 221
CC1COc2cccc3[nH]c(=O)n1c23 (stereo unspecified)	137
NC(=O)COCCN1CCN(C(c2ccccc2)c2ccccc2)CC1	119 to 120
CC(C)(C)NC(=O)C(Cc1ccc(OCc2ccccc2)cc1)NC(=O)c1ccc(C(C)(C)C)cc1 (stereo unspecified)	124 to 131

Structure (SMILES)	melting point [°C]
COc1ccc(S(=O)(=O)Nc2ccc(Cl)cc2Cc2c(F)cccc2F)cc1OC	144
COCOc1cc(C(=O)O)n(Cc2ccc(C(F)(F)F)cc2Cl)n1	133 to 134
CCOC(=O)c1ccc2c(c1)N=C(C)c1ccc(OC)cc1O2	117 to 118
CN1CCCCC1C(NC(=O)Nc1ccc2[nH]ncc2c1)c1cc(F)cc(Cl)c1 (stereo unspecified)	192
Cc1ccc(O[C@H]2CCN(C)C[C@H]2O)cc1C (relative stereo)	127 to 129
Nc1cc([N+](=O)[O-])c(N)cc1Cl	157
N#CCCCCCCCn1c(-c2ccccc2)nc(-c2ccccc2)c1-c1ccccc1	93 to 94
CCOC(=O)c1cc(Oc2cc(Cl)c(Cl)cc2Cl)ccc1[N+](=O)[O-]	99 to 102
Cc1cccc(N2CCN(CCCCNC(=O)c3cc4ccccc4o3)CC2)c1	119 to 120
O=C(Nc1ccc(Oc2ccc(Cl)cc2)cc1)N1CC(c2ccccc2)=C(c2ccc(Cl)cc2)N1	158 to 161
CCCCCCCCCCCCCCCC[C@]1(CO)CC(=O)N1	82
Fc1cc2c(cc1F)CC(n1c(-c3nnn[nH]3)c[nH]c1=S)CC2 (stereo unspecified)	195 to 212
CC(C)(C)c1cc(Nc2ccc(CCC(=O)O)cc2)cc(C(C)(C)C)c1O	140 to 142
Cc1[nH]c2ccccc2c1C[C@@H](N)C(=O)O	244 to 246
COc1cc(Cl)ccc1NC(=O)C1CCCn2c1nc(-c1ccncn1)cc2=O (stereo unspecified)	251 to 253
Cc1nc(CS(=O)(=O)c2cccc(Cl)c2Cl)no1	105 to 107
COc1cc(CC(C#N)(C=O)C(OC)OC)cc(OC)c1OC (stereo unspecified)	118 to 122
O=C(c1cc2ccc(O)cc2[nH]1)N1CCC(Cc2ccccc2)CC1	214 to 215
Cc1ccsc1C(=O)Nc1ccc(C(=O)N2Cc3ccccc3Cc3ccccc32)cc1	201 to 204
COc1cc(C=CC(=O)c2ccc(I)cc2O)cc(OC)c1OC	140 to 141
NC(=O)CN(C(=O)CCCOc1ccc([N+](=O)[O-])c(C=O)c1)C1CCCCC1	104 to 105
CCOC(=O)COc1cccc2c1CCCC2=O	58 to 60
CN(C)C(=O)Nc1ccc2c(c1)C(=O)NC(=O)C2(C)C	256 to 258
CC(C)N(CCNc1nc(Nc2cccc(NS(C)(=O)=O)c2)nc2[nH]cnc12)C(C)C	226 to 230
CC1(C)CCC(C)(C)c2cc(C=C=Cc3ccc(C(=O)O)cc3)ccc21	227 to 228
Cc1ccc(-c2ccccc2-c2nnnn2-c2ccc([N+](=O)[O-])cc2)cc1	164 to 166

Structure (SMILES)	melting point [°C]
N#Cc1cnc(-c2ccncc2)nc1N	253 to 255
Cc1nc2cc3c(cc2[nH]1)C(C)(C)CC(=O)N3	290 to 294
Cc1cc(Nc2ncnc3ccc(-c4ccoc4)cc23)ccc1OCc1ccccn1	206 to 208
CC(C)c1nc(CCCO)n(Cc2ccncc2)c1Sc1cc(Cl)cc(Cl)c1	106 to 107
O=C(O)CCCCNC(=O)CCCCC1CCSS1 (stereo unspecified)	98 to 100
CN(CC1CCCCN1CC(=O)N1c2ccccc2NC(=O)c2ccccc21)C1CCCCC1 (stereo unspecified)	146 to 148
CC(C)c1c(C=CC(=O)CC(O)CC(=O)O)c(-c2ccccc2)c2c3ccccc3ccn12 (stereo unspecified)	95 to 100
NC(=O)c1ccc(-c2ccccc2OCC2CC2)[nH]c1=O	160 to 162
CC(C)(C)c1ccc(S(=O)(=O)Nc2ncnc(OCCO)c2Br)cc1	146 to 148
Cn1c(=Nc2ccc(Cl)cc2)sc2ncccc2c1=O	142 to 143
CCCn1c(=O)c([N+](=O)[O-])c2n(c1=O)CCS2	189 to 191
CO[C@](C)(c1cc(F)cc(OCc2ccc3ccccc3c2)c1)[C@H](C)O (racemic)	62 to 63
CCCCCCNC(=O)Nc1cccc2c1C1(COc3cc4c(cc31)OCCO4)C(=O)N2C (stereo unspecified)	154 to 155
Cc1cc(NCCNc2cc(C)[nH]n2)n[nH]1	255 to 257
OCc1cn(-c2ccc(F)c(Br)c2)cn1	151 to 152
CCCCCC(CC(=O)Nc1cc(C(=O)NC(=O)c2ccncc2)ccc1C(C)(C)C)c1ccc(OC)cc1OC (stereo unspecified)	184 to 185
CCCCc1nc2ccc(O)cc2c(=O)n1Cc1ccc(-c2ccccc2-c2nnnn2COC)cc1	157 to 159
CN(C)C(=O)C1(N2C(=O)c3cccc(Cl)c3C2=O)CCCCC1	135 to 137
CC(C)(C)OC(=O)c1ncn2c1[C@@H]1CCCN1C(=O)c1cc(F)ccc1-2	154 to 155
COc1ccc(N2CCN(c3c(C)c(C)c4c(c3C)C(O)(c3ccc(F)cc3)C(C)(C)O4)CC2)cc1 (stereo unspecified)	142 to 144
COc1cc2ncc(N3C(=O)C4CCC3CC4)nc2cc1OC	158 to 159
N#Cc1cc([N+](=O)[O-])ccc1N1CCC(=O)CC1	109
Cn1c(C(N)=O)nc([N+](=O)[O-])c1CBr	220 to 222
CC(C)(C)OC(=O)N1CCC2(CC1)CC(CCc1ccccc1)=NO2	121 to 124
CN1CC=C(C(=O)N2c3ccccc3C(=O)Nc3cccc(Cl)c32)CC1	296
CN1CCC(O)(c2ccccc2C(O)c2ccccc2)CC1 (stereo unspecified)	190 to 191

Structure (SMILES)	melting point [°C]
CC(C)(Oc1ccc(CCCOc2ccc(-c3ccccc3)cc2)cc1)C(=O)O	130 to 133
COc1ccc2c3c(c(Cl)nc2c1)C(=O)c1ccccc1-3	261 to 266
CCOC(=O)C1N=C(c2ccccc2)c2cc([N+](=O)[O-])ccc2NC1=O (stereo unspecified)	271
CN1CCCC2(CCn3c(c(C4=C(c5cn(C)c6ccccc56)C(=O)NC4=O)c4ccccc43)C2)C1 (stereo unspecified)	144 to 146
CCOC(=O)C(C)(C)Oc1ccc(-c2ccc(CCNC(=O)c3ccccc3C)cc2)cc1	< 20
Cc1cccc2c(=O)c3ccccc3ccc12	77 to 80
COC(=O)Cc1cc(Cl)c2c(c1)CCC(c1ccccc1)N2C (stereo unspecified)	78 to 80
Cc1nc2ccc3c(c2o1)OC(CO)CO3 (stereo unspecified)	120
Cc1cc(C(=O)NCOC(=O)CO)ncc1C(c1cc(F)ccc1F)S(=O)(=O)c1ccc(F)cc1 (stereo unspecified)	84
Cc1cccc2c(C=O)cc(C(C)C)c(O)c12	125 to 128
Oc1ccc(-c2nc(COc3ccc(CCCn4ccnc4)cc3)co2)cc1	182 to 183
Nc1nc2cccnc2c2c1nc(CF)n2CC1(O)CCOC1 (stereo unspecified)	209 to 210
Cc1ccc(OCCCN2CCC(Cc3ccc4ccccc4n3)CC2)c2c1NC(=O)C2(C)C	150 to 151
CC(=O)Nc1ccc(-c2cc(C(=O)c3ccc(C)cc3)sc2N2CCOCC2)cc1	168
NS(=O)(=O)c1ccccc1Cn1cncn1	128 to 131
CCOC(=O)c1nc(NC(C)=O)sc1Cc1ccc(SCC)cc1	190
CCc1cccc(CNC(=O)c2nc3scc(COCc4ccc(C(=O)O)cc4)c3c(=O)[nH]2)c1	240 to 242
CCC(C)(C)NS(=O)(=O)c1ccc(CBr)cc1	100
Cc1cc(F)cc2c1-c1ccc(F)cc1C21NC(=O)NC1=O (stereo unspecified)	> 320
Cc1cn2nc(S(=O)(=O)Cl)nc2nc1C	116 to 120
COC(=O)[C@@H]1CSCN1S(=O)(=O)c1ccc(Cl)c(CBr)c1Cl	48 to 50
CCOC(=S)C(C=P(c1ccccc1)(c1ccccc1)c1ccccc1)C(=O)C(F)(F)F (stereo unspecified)	190
CN(C)CCCOc1ccccc1CNc1ccccc1	67 to 69
